In patent publication US11850220B2 (Augusta University Research Institute, Inc., priority 2020, dated 2023):

Experiments:
[1] = system: hot plate; test: hot plate technique (central analgesic); type: in vivo; conditions: for Potency: Relative to indomethacin at 120 min.
[2] = system: acetic acid-induced abdominal writhing; test: acetic acid-induced abdominal writhing technique (peripheral analgesic); type: in vivo; conditions: for Potency: Relative to indomethacin; for % Inhibition/protection / Writing reflex ± SEM: in vivo; on % Inhibition/protection: test concentration or dose not given here; on Writing reflex ± SEM: test concentration or dose not given here
[3] = system: carrageenan-induced paw edema; test: carrageenan-induced paw edema technique (anti-inflammatory); type: in vivo; conditions: for Observed (1/property): 1/(% inhibition of edema thickness at 3 h effect); on Observed (1/property): test concentration or dose not given here; on Potency (% Inhibition relative to indomethacin at 3 h effect): test concentration or dose not given here
Text: Anti-inflammatory properties of the ibuprofen-amino acid conjugate (5a-j) and ibuprofen-amino acid-4-aminophenol conjugates 7a-j were studied by the standard carrageenan-induced paw edema technique (Naumov, R. N. et al., Bioorg. Med. Chem. Lett. 2015, 25, 2314-2320; Tiwari, A. D. et al., Org. Biomol. Chem. 2014, 12, 7238-7249).

[4] = system: animal gastric mucosa; test: ulcerogenic liability; type: in vivo; conditions: same dose as anti-inflammatory testing
[5] = % inhibition of edema thickness at 3 h effect, Table 7
[6] = anti-inflammatory property (% inhibition of edema at 3 h), Table 8

| SMILES | % protection ([1]; After 30 min.) | Latency period ± SEM ([1]; After 30 min.) [s] | % protection ([1]; After 60 min.) | Latency period ± SEM ([1]; After 60 min.) [s] | % protection ([1]; After 90 min.) | Latency period ± SEM ([1]; After 90 min.) [s] | % protection ([1]; After 120 min.) | Latency period ± SEM ([1]; After 120 min.) [s] | Potency [1] | Potency [2] | % Inhibition/protection [2] [%] | Writing reflex ± SEM [2] | % inhibition of edema ([3]; 1 h) [%] | Mean edema thickness ([3]; 1 h) [mm] | % inhibition of edema ([3]; 2 h) [%] | Mean edema thickness ([3]; 2 h) [mm] | % inhibition of edema ([3]; 3 h) [%] | Mean edema thickness ([3]; 3 h) [mm] | % inhibition of edema ([3]; 4 h) [%] | Mean edema thickness ([3]; 4 h) [mm] | further results |
| --- | --- | --- | --- | --- | --- | --- | --- | --- | --- | --- | --- | --- | --- | --- | --- | --- | --- | --- | --- | --- | --- |
| CC(C)Cc1ccc(C(C)C(=O)NCCCC(=O)O)cc1 (centres unmarked) [Compound 5d, 4-(2-(4-Isobutylphenyl)propanamido)butanoic acid] | (34.7) % | 3.26 ± 0.12 | (19.3) % | 2.66 ± 0.04 | (13.2) % | 2.49 ± 0.03 | (8.2) % | 2.37 ± 0.01 | 14 | 7 | 3.8 | 93.6 ± 2.6 | 22 | 0.96 ± 0.06 | 28 | 1.09 ± 0.07 | 60 | 0.52 ± 0.04 | 13 | 1.09 ± 0.05 | melting point: 78.3 °C; Observed (1/property) ([3]; Table 7): 0.01667; % inhibition of edema ([3]; 24 h): 58%; Mean edema thickness ([3]; 24 h): 0.08 ± 0.02 mm; Observed property [3, 5]: 60%; Observed property [3, 6]: 60%; Potency (% Inhibition relative to indomethacin at 3 h effect) [3]: 75% |
| CC(C)Cc1ccc(C(C)C(=O)N[C@@H](C)C(=O)Nc2ccc(O)cc2)cc1 (stereo partly drawn) [Compound 7b, (2S)-N-(4-Hydroxyphenyl)-2-(2-(4-isobutylphenyl)propanamido)propanamide] | (74.0) % | 4.21 ± 0.14 | (78.5) % | 3.98 ± 0.09 | (75.0) % | 3.85 ± 0.05 | (60.7) % | 3.52 ± 0.06 | 107 | 132 | 72.6 | 26.7 ± 1.1 | 21 | 0.97 ± 0.05 | 25 | 1.13 ± 0.06 | 62 | 0.50 ± 0.02 | 44 | 0.70 ± 0.03 | melting point: 193.7 °C; Observed (1/property) ([3]; Table 7): 0.01613; % inhibition of edema ([3]; 24 h): 5%; Mean edema thickness ([3]; 24 h): 0.18 ± 0.02 mm; Observed property [3, 5]: 62%; Observed property [3, 6]: 62%; Potency (% Inhibition relative to indomethacin at 3 h effect) [3]: 78% |
| CC(C)Cc1ccc(C(C)C(=O)NCCC(=O)Nc2ccc(O)cc2)cc1 (centres unmarked) [Compound 7c, N-(4-Hydroxyphenyl)-3-(2-(4-isobutylphenyl)propanamido)propanamide] | (58.3) % | 3.83 ± 0.03 | (53.4) % | 3.42 ± 0.12 | (52.7) % | 3.36 ± 0.15 | (52.1) % | 3.33 ± 0.11 | 92 | 115 | 63.0 | 36.0 ± 1.3 | 35 | 0.80 ± 0.03 | 58 | 0.63 ± 0.03 | 67 | 0.43 ± 0.02 | 70 | 0.38 ± 0.01 | melting point: 155.5 °C; Observed (1/property) ([3]; Table 7): 0.01493; % inhibition of edema ([3]; 24 h): 0%; Mean edema thickness ([3]; 24 h): 0.19 ± 0.02 mm; Observed property [3, 5]: 67%; Observed property [3, 6]: 67%; Potency (% Inhibition relative to indomethacin at 3 h effect) [3]: 84% |
| CC(C)Cc1ccc(C(C)C(=O)NCCCC(=O)Nc2ccc(O)cc2)cc1 (centres unmarked) [Compound 7d, N-(4-Hydroxyphenyl)-4-(2-(4-isobutylphenyl)propanamido)butanamide] | (49.2) % | 3.61 ± 0.05 | (27.8) % | 2.85 ± 0.04 | (15.0) % | 2.53 ± 0.02 | (12.3) % | 2.46 ± 0.09 | 22 | 77 | 42.1 | 56.3 ± 0.7 | 13 | 1.07 ± 0.06 | 25 | 1.14 ± 0.04 | 66 | 0.44 ± 0.03 | 13 | 1.09 ± 0.04 | melting point: 140.6 °C; Observed (1/property) ([3]; Table 7): 0.01515; % inhibition of edema ([3]; 24 h): 53%; Mean edema thickness ([3]; 24 h): 0.09 ± 0.01 mm; Observed property [3, 5]: 66%; Observed property [3, 6]: 66%; Potency (% Inhibition relative to indomethacin at 3 h effect) [3]: 83% |
| CC(C)Cc1ccc(C(C)C(=O)O)cc1 (centres unmarked) [Ibuprofen, reference compound] | (25.2) % | 3.03 ± 0.04 | (30.5) % | 2.91 ± 0.02 | (40.5) % | 3.09 ± 0.04 | (50.2) % | 3.29 ± 0.03 | 89 | 93 | 50.8 | 47.9 ± 2.1 | 25 | 0.92 ± 0.02 | 37 | 0.95 ± 0.03 | 71 | 0.38 ± 0.01 | 49 | 0.64 ± 0.02 | % Incidence of ulcer divided by 10 [4]: 3.33; Average of ulcer number [4]: 0.33; Average severity of ulcer [4]: 0.67; Number of animals with ulcer [4]: 2/6; % inhibition of edema ([3]; 24 h): 32%; Mean edema thickness ([3]; 24 h): 0.13 ± 0.01 mm |
| COc1ccc2c(c1)c(CC(=O)O)c(C)n2C(=O)c1ccc(Cl)cc1 [Indomethacin, reference compound] | (30.6) % | 3.16 ± 0.02 | (35.4) % | 3.02 ± 0.04 | (49.5) % | 3.29 ± 0.01 | (56.6) % | 3.43 ± 0.05 | 100 | 100 | 54.9 | 43.9 ± 1.9 | 44 | 0.69 ± 0.05 | 45 | 0.83 ± 0.04 | 80 | 0.26 ± 0.03 | 66 | 0.43 ± 0.05 | % Incidence of ulcer divided by 10 [4]: 10; Average of ulcer number [4]: 2; Average severity of ulcer [4]: 1.67; Number of animals with ulcer [4]: 6/6; Ulcer index [4]: 13.67; % protection ([1]; After 0 min.): (6.4) %; Latency period ± SEM ([1]; After 0 min.): 3.15 ± 0.03 s; % inhibition of edema ([3]; 24 h): 53%; Mean edema thickness ([3]; 24 h): 0.09 ± 0.02 mm; Potency (% Inhibition relative to indomethacin at 3 h effect) [3]: 100% |
